From the NIST ThermoML archive (doi:10.1021/je034002l)

Columns and labels:
[1] = 101.3 kPa, Liquid
[2] = xn = mol fraction of the nth substance listed; settings: 101.3 kPa, Liquid, x2 = 0

CCCCCCCl [1-chlorohexane]
[1]
Settings	mass density [kg/m3]	viscosity [mPa·s]
293.15 K	878.52	0.7704
298.15 K	873.75	0.7173
303.15 K	868.98	0.6702
308.15 K	864.21	0.6283
313.15 K	859.44	0.591
318.15 K	854.67	0.558
323.15 K	849.9	0.5285
328.15 K	845.12	0.5019
333.15 K	840.35	0.4778

CCCCCC [hexane]
[1]
Settings	mass density [kg/m3]	viscosity [mPa·s]
293.15 K	659.44	0.3163
298.15 K	654.93	0.3036
303.15 K	650.36	0.2914
308.15 K	645.74	0.2797
313.15 K	641.08	0.2685
318.15 K	636.37	0.258
323.15 K	631.61	0.2482
328.15 K	626.81	0.2391
333.15 K	621.95	0.2308

CCCCCC [hexane] + CCCCCCCl
[2]
Settings	mass density [kg/m3]	viscosity [mPa·s]
293.15 K	659.44	0.3163
298.15 K	654.93	0.3036
303.15 K	650.36	0.2914
308.15 K	645.74	0.2797
313.15 K	641.08	0.2685
318.15 K	636.37	0.258
323.15 K	631.61	0.2482
328.15 K	626.81	0.2391
333.15 K	621.95	0.2308
